Assay results reported in patent US7235674B2, “Substituted coumarins and quinolines and analogs as activators of caspases and inducers of apoptosis and the use thereof” (Cytovia, Inc., priority 2001, dated 2007).

Experiments:
[1] = system: Human breast cancer cell line ZR-75-1; assay: Caspase cascade activation assay (N-(Ac-DEVD)-N'-ethoxycarbonyl-R110 fluorogenic substrate) in ZR-75-1 cells; assay type: cell-based; details: for EC50 / maximal fold induction: Homo sapiens; for Caspase activity (Ratio) ZR-75-1: ratio of net RFU of test compound to control, 3 h substrate reading; for maximal fold induction: ZR-75-1, 24 h, read-out: Max efficacy ZR751
Procedure: (§1) Human breast cancer cell lines T-47D and ZR-75-1 were grown according to media component mixtures designated by American Type Culture Collection +10% FCS (Invitrogen Corporation), in a 5% CO2 −95% humidity incubator at 37° C. T-47D and ZR-75-1 cells were maintained at a cell density between 30 and 80% confluency at a cell density of 0.1 to 0.6×10^6 cells/mL. Cells were harvested at 600×g and resuspended at 0.65×10^6 cells/mL into appropriate media +10% FCS. An aliquot of 45 μl of cells was added to a well of a 96-well microtiter plate containing 5 μl of a 10% DMSO in RPMI-1640 media solution containing 0.16 to 10 μM of 3-cyano-7-methoxy-4-(3-bromo-4,5-dimethoxyphenyl)-2-oxo-2H-chromene (Example 1) or other test compound (0.016 to 1 μM final). An aliquot of 45 μl of cells was added to a well of a 96-well microtiter plate containing 5 μl of a 10% DMSO in RPMI-1640 media solution without test compound as the control sample. The samples were mixed by agitation and then incubated at 37° C. for 24 h in a 5% CO2 −95% humidity incubator. After incubation, the samples were removed from the incubator and 50 μl of a solution containing 20 μM of N-(Ac-DEVD)-N′-ethoxycarbonyl-R110 fluorogenic substrate (SEQ ID NO:1) (Cytovia, Inc.; WO99/18856), 20% sucrose (Sigma), 20 mM DTT (Sigma), 200 mM NaCl (Sigma), 40 mM Na PIPES buffer pH 7.2 (Sigma), and 500 μg/ml lysolecithin (Calbiochem) was added. The samples were mixed by agitation and incubated at room temperature. Using a fluorescent plate reader (Model 1420 Wallac Instruments), an initial reading (T=0) was made approximately 1-2 min after addition of the substrate solution, employing excitation at 485 nm and emission at 530 nm, to determine the background fluorescence of the control sample. After the 3 h incubation, the samples were read for fluorescence as above (T=3 h).
(§2) The Relative Fluorescence Unit values (RFU) were used to calculate the sample readings as follows: RFU(T=3 h)−Control RFU(T=0)=Net RFU(T=3 h)
(§3) The activity of caspase cascade activation was determined by the ratio of the net RFU value for 3-cyano-7-methoxy-4-(3-bromo-4,5-dimethoxy-phenyl)-2-oxo-2H-chromene, or other test compound, to that of control samples. The EC50 (nM) was determined by a sigmoidal dose-response calculation (Prism 2.0, GraphPad Software Inc.).

[2] = system: Human breast cancer cell line T-47D; assay: Caspase cascade activation assay (N-(Ac-DEVD)-N'-ethoxycarbonyl-R110 fluorogenic substrate) in T-47D cells; assay type: cell-based; details: for EC50: Homo sapiens, T47D; for EC50 / EC50 (nM) T-47D: caspase cascade activation potency; for EC50 / Caspase activity (Ratio) T-47D / EC50 (nM) T-47D: T-47D cells, 24 h incubation; for Caspase activity (Ratio) T-47D: ratio of net RFU of test compound to control, 3 h substrate reading; for EC50 (nM) T47D / Max efficacy T47D: commercial fused-pyridine compounds, T47D cells
Procedure: as §1, §2, §3

[3] = caspase cascade activation potency, ZR-75-1 cells, 24 h incubation
[4] = commercial fused-pyridine compounds, ZR751 cells
[5] = ZR-75-1, commercial fused-pyridine compounds, ZR751 cells

`COc1cc(-c2c(C#N)c(=O)oc3cc(N(C)C)ccc23)cc(Br)c1OC` [Example 21, 3-Cyano-7-dimethylamino-4-(3-bromo-4,5-dimethoxyphenyl)-2-oxo-2H-chromene] was tested, and the EC50 [1, 3] was 279 nM, the “Caspase activity (Ratio) ZR-75-1” value ([1]; ZR-75-1 cells, 24 h incubation) was 9.1 and the EC50 [2] was 546 nM. The “Caspase activity (Ratio) T-47D” value [2] was 5.8.

For `N#Cc1c(-c2ccccc2)c2ccccc2oc1=N` [Example 3, 3-Cyano-2-imino-4-phenyl-2H-chromene], the “EC50 (nM) ZR-75-1” value [1, 3] was “Inactive”, the “Caspase activity (Ratio) ZR-75-1” value ([1]; ZR-75-1 cells, 24 h incubation) was “Inactive” and the “EC50 (nM) T-47D” value [2] was “Inactive”. The “Caspase activity (Ratio) T-47D” value [2] was “Inactive”.

In the case of `N#Cc1c(N)nc2sc(C(N)=O)c(N)c2c1-c1ccc(Br)cc1` [compound 47], the maximal fold induction [1, 4] is reported as 2.7, the EC50 [1, 5] is reported as 6110 nM and the “EC50 (nM) T47D” value [2] is reported as “Inactive”. For the same compound, the “Max efficacy T47D” value [2] was “Inactive”.

In the case of `COc1cc(OC)cc(-c2c(C#N)c(=O)oc3cc(N)ccc23)c1` [Example 22, 7-Amino-3-cyano-4-(3,5-dimethoxyphenyl)-2-oxo-2H-chromene], the EC50 [1, 3] is reported as 400 nM, the “Caspase activity (Ratio) ZR-75-1” value ([1]; ZR-75-1 cells, 24 h incubation) is reported as 3.4 and the “EC50 (nM) T-47D” value [2] is reported as “Inactive”. The “Caspase activity (Ratio) T-47D” value [2] was 1.5.

`N#Cc1c(N)nc2[nH]c(=S)[nH]c(=O)c2c1-c1ccc(Cl)cc1` [compound 51] was tested, and the maximal fold induction [1, 4] was 2.8, the EC50 [1, 5] was 5380 nM and the “EC50 (nM) T47D” value [2] was “Inactive”. For the same compound, the “Max efficacy T47D” value [2] was “Inactive”.

With `COc1cc(-c2c(C#N)c(=N)oc3cc(N)ccc23)cc(Br)c1OC` [Example 26, 7-Amino-4-(3-bromo-4,5-dimethoxy-phenyl)-3-cyano-2-imino-2H-chromene] the EC50 [1, 3] was 2770 nM, the “Caspase activity (Ratio) ZR-75-1” value ([1]; ZR-75-1 cells, 24 h incubation) was 8.8 and the “EC50 (nM) T-47D” value [2] was “Inactive”. The “Caspase activity (Ratio) T-47D” value [2] was 1.9.

`COc1cc(OC)cc(-c2c(C#N)c(=O)oc3cc(N(C)C)ccc23)c1` [Example 23, 3-Cyano-7-dimethylamino-4-(3,5-dimethoxyphenyl)-2-oxo-2H-chromene] was tested, and the EC50 [1, 3] was 429 nM, the “Caspase activity (Ratio) ZR-75-1” value ([1]; ZR-75-1 cells, 24 h incubation) was 7.2 and the EC50 [2] was 456 nM. The “Caspase activity (Ratio) T-47D” value [2] was 2.3.

In the case of `N#Cc1c(-c2ccccc2)c2ccccc2oc1=O` [Example 4, 3-Cyano-4-phenyl-2-oxo-2H-chromene], the “EC50 (nM) ZR-75-1” value [1, 3] is reported as “Inactive”, the “Caspase activity (Ratio) ZR-75-1” value ([1]; ZR-75-1 cells, 24 h incubation) is reported as “Inactive” and the “EC50 (nM) T-47D” value [2] is reported as “Inactive”. The “Caspase activity (Ratio) T-47D” value [2] was “Inactive”.
